# Laboratory results: BindingDB's records for doi:10.1021/jm000181f (Deakin University, 2001)
# What was measured:
# [1] = Dissociation constant of [3H]DPCPX binding to adenosine A1 receptor (AR) at 200 nM
# [2] = Dissociation constant of [3H]DPCPX binding to adenosine A1 receptor (AR) at 5 nM
# [3] = Dissociation constant of [3H]DPCPX binding to adenosine A1 receptor (AR) at 100 nM
# [4] = Dissociation constant of [3H]DPCPX binding to adenosine A1 receptor (AR) at 0.05 nM
# [5] = Dissociation constant of [3H]-DPCPX binding to adenosine A1 receptor (AR) at 0.1 nM
# [6] = Dissociation constant of [3H]-DPCPX binding to adenosine A1 receptor(AR) at 0.05 nM
# [7] = Dissociation constant of [3H]DPCPX binding to adenosine A1 receptor(AR) at 0.1 nM
structure (smiles),measurement,setting,value
"CCCn1c(=O)c2[nH]c(C3CCCCC3)nc2n(Cc2ccc(S(=O)(=O)F)cc2)c1=O [4-(8-Cyclohexyl-2,6-dioxo-1-propyl-1,2,6,7-tetrahydro-purin-3-ylmethyl)-benzenesulfonyl fluoride]",Kd,[1],0.32 nM
"CCCn1c(=O)c2[nH]c(C3CCCCC3)nc2n(CCCc2ccc(S(=O)(=O)F)cc2)c1=O [4-[3-(8-Cyclohexyl-2,6-dioxo-1-propyl-1,2,6,7-tetrahydro-purin-3-yl)-propyl]-benzenesulfonyl fluoride]",Kd,[1],0.37 nM
"CCCn1c(=O)c2[nH]c(C3CCCCC3)nc2n(CCCNC(=O)c2ccc(S(=O)(=O)F)cc2)c1=O [4-[3-(8-Cyclohexyl-2,6-dioxo-1-propyl-1,2,6,7-tetrahydro-purin-3-yl)-propylcarbamoyl]-benzenesulfonyl fluoride]",Kd,[2],0.37 nM
same,Kd,[3],0.34 nM
same,Kd,[4],0.28 nM
same,Kd,[5],0.27 nM
"CCCn1c(=O)c2[nH]c(C3CCCC3)nc2n(CCCNC(=O)c2ccc(S(=O)(=O)F)cc2)c1=O [4-[3-(8-Cyclopentyl-2,6-dioxo-1-propyl-1,2,6,7-tetrahydro-purin-3-yl)-propylcarbamoyl]-benzenesulfonyl fluoride]",Kd,[6],0.26 nM
same,Kd,[7],0.24 nM
"CCCn1c(=O)c2[nH]c(C3CCCCC3)nc2n(CCCCCc2ccc(S(=O)(=O)F)cc2)c1=O [4-[5-(8-Cyclohexyl-2,6-dioxo-1-propyl-1,2,6,7-tetrahydro-purin-3-yl)-pentyl]-benzenesulfonyl fluoride]",Kd,[1],0.81 nM
